What all share (format): binding
A short description of test [1]: Complexation of Dy3+ followed by proton NMR. To be noted: 1 mmol/l derivative, 4 mmol/l cation, aqueous solution. The method, then:
(§1) Each complex is prepared by adding 4 mmol/l of the tested cation to 500 μl of an aqueous solution containing 1 mmol/l of the product from Example 1. The following cations were tested: Lu^3+, La^3+, Dy^3+, Eu^3+ and Co^2+.
(§2) The resulting complexes were then characterised by proton nuclear magnetic resonance spectrometry.

Test [2] in a line: Complexation of Eu3+ followed by proton NMR. To be noted: 1 mmol/l derivative, 4 mmol/l cation, aqueous solution. The procedure:
as §1, §2

The nature of test [3]: Complexation of Co2+ followed by proton NMR. To be noted: 1 mmol/l derivative, 4 mmol/l cation, aqueous solution. The procedure:
as §1, §2

Test [4] is described as follows: Complexation of La3+ followed by proton NMR. To be noted: 1 mmol/l derivative, 4 mmol/l cation, aqueous solution. The method, then: as §1, §2
Test [5] in a line: Complexation of Lu3+ followed by proton NMR. To be noted: 1 mmol/l derivative, 4 mmol/l cation, aqueous solution. The method, then:
as §1, §2

A short description of test [6]: Competition with EDTA in complexing Dy3+, proton NMR. To be noted: 1 mmol/l derivative, 4 mmol/l cation and EDTA (large excess of EDTA), aqueous solution. The procedure:
(§3) In this example, experiments were carried out to compare the derivative from Example 1 and ethylene diamine tetra acetate (EDTA) in complexing Dy^3+, Eu^3+ and Co^2+ ions, in order to get an idea of the force of the complexes prepared in Example 2.
(§4) With this in mind, 4 mmol/l of the tested cation and EDTA were added to 50 μl of an aqueous solution containing 1 mmol/l of the derivative from Example 1. The resulting products were than characterised by proton NMR spectrometry.

The nature of test [7]: Competition with EDTA in complexing Eu3+, proton NMR. To be noted: 1 mmol/l derivative, 4 mmol/l cation and EDTA (large excess of EDTA), aqueous solution. The method, then: as §3, §4
Test [8] in a line: Competition with EDTA in complexing Co2+, proton NMR. To be noted: 1 mmol/l derivative, 4 mmol/l cation and EDTA (large excess of EDTA), aqueous solution. The method, then:
as §3, §4

The nature of test [9]: Complexation of physiological cation Na+, proton NMR. To be noted: same procedure as Example 2: 1 mmol/l derivative, 4 mmol/l cation. The procedure: as §1
(§5) In this example, the complexation properties of the derivative from Example 1 were tested vis à vis physiological cations: calcium, sodium and potassium, all of which are required in the development of living organisms.
(§6) The same procedure was used as given in Example 2, and the resulting products were characterised by proton NMR spectrometry.

Test [10] in a line: Complexation of physiological cation K+, proton NMR. To be noted: same procedure as Example 2: 1 mmol/l derivative, 4 mmol/l cation. The method, then: as §1, §5, §6
Test [11] can be described thus: Complexation of physiological cation Ca2+, proton NMR. To be noted: same procedure as Example 2: 1 mmol/l derivative, 4 mmol/l cation. The procedure:
as §1, §5, §6

For “Hexakis-(3,6-anhydro-2-O-carboxymethyl)-cyclomaltohexaose [Example 1]”, the “interaction with Dy^3+ (change of proton NMR spectrum)” value in test [1] is on record as “very strong interaction”. The “interaction with Eu^3+ (change of proton NMR spectrum)” value in test [2] was “very strong interaction”. Moreover, in test [3], the “interaction with Co^2+ (change of proton NMR spectrum)” value is listed as “very strong interaction”. For the same substance, the “interaction with La^3+ (change of proton NMR spectrum)” value in test [4] is “H6 and H6′ protons located on the anhydro bridge can still be observed”. Further, the “interaction with Lu^3+ (change of proton NMR spectrum)” value in test [5] is given as “several stoichiometrically different complexes co-exist in solution”. Moreover, in test [6], the “strength of Dy^3+ complex compared to EDTA” value is recorded as “complexes the cations more strongly than EDTA”. Also, the “strength of Eu^3+ complex compared to EDTA” value in test [7] was “complexes the cations more strongly than EDTA”. Also, the “strength of Co^2+ complex compared to EDTA” value in test [8] is “complexes the cations more strongly than EDTA”. Moreover, in [9], the “effect of Na^+ on proton NMR peaks of the derivative (complexation)” value is reported as “hardly affected”. Also, the “effect of K^+ on proton NMR peaks of the derivative (complexation)” value in test [10] is recorded as “hardly affected”. In addition, the “effect of Ca^2+ on proton NMR peaks of the derivative (complexation)” value in [11] was “hardly affected”.

Values taken from patent US6559135B2, “Per-(3-6-anhydro)cyclodextrins derivatives, preparation and use thereof for separating ions” (Commissariat a l'Energie Atomique, priority 2000, dated 2003).
